Experimental data taken from patent publication US20240009174A1, “METHODS FOR DISRUPTING MITOCHONDRIAL UNFOLDED PROTEIN RESPONSE” (Health Research, Inc., priority 2020, published 2024).

How the values were obtained:
LNCaP and PC-3 cells [1] = assay: poly-Ub protein levels by western blotting; format: cell-based; settings: 24 hours
Protocol: FIG. 6. Pharmacological inhibition of HSP60-ClpP interaction induces UPR^mt and PCa cell death. (A) Docking of DCEM1 into apical domain of HSP60. (B) LNCaP and PC-3 cells were treated with DCEM1 for 24 hours and HSP60-ClpP interaction was analyzed by co-immunoprecipitation assay. (C) LNCaP and PC-3 cells were treated with DCEM1 for 24 hours and mitoROS levels were analyzed by flow cytometry using mitoSOX dye. (D) LNCaP and PC-3 cells were treated with DCEM1 for 24 hours and poly-Ub protein levels were analyzed by western blotting. (E) LNCaP and PC-3 cells were treated with DCEM1 for 24 and 48 hours and apoptotic cell populations were analyzed by flow cytometry using Annexin V FITC/PI method as explained in materials and methods. In (E) top panel, the bars in each series from left to right are control, 5, 10, and 20, and in (E) bottom panel, the bars in each series from left to right are DMSO, 5, 10, and 20. (F) LNCaP and PC-3 cells were treated with DCEM1 for 24 and 48 hours and lysates were prepared and analyzed for DEVDase activity using specific peptide substrate. […] (G) LNCaP and PC-3 cells were pre-treated with SKQ1 followed by DCEM1 treatment and analyzed for cell viability by MTT assay. (H) LNCaP and PC-3 cells were treated with either DCEM1 or H2O2 (200 μM) for 24 hours and total DNA were isolated and analyzed for mtDNA damage as described in materials and methods. […]

LNCaP and PC-3 cells [2] = assay: mitoROS by flow cytometry using mitoSOX dye; format: cell-based
Protocol: FIG. 6. Pharmacological inhibition of HSP60-ClpP interaction induces UPR^mt and PCa cell death. (A) Docking of DCEM1 into apical domain of HSP60. (B) LNCaP and PC-3 cells were treated with DCEM1 for 24 hours and HSP60-ClpP interaction was analyzed by co-immunoprecipitation assay. (C) LNCaP and PC-3 cells were treated with DCEM1 for 24 hours and mitoROS levels were analyzed by flow cytometry using mitoSOX dye. (D) LNCaP and PC-3 cells were treated with DCEM1 for 24 hours and poly-Ub protein levels were analyzed by western blotting. (E) LNCaP and PC-3 cells were treated with DCEM1 for 24 and 48 hours and apoptotic cell populations were analyzed by flow cytometry using Annexin V FITC/PI method as explained in materials and methods. In (E) top panel, the bars in each series from left to right are control, 5, 10, and 20, and in (E) bottom panel, the bars in each series from left to right are DMSO, 5, 10, and 20. (F) LNCaP and PC-3 cells were treated with DCEM1 for 24 and 48 hours and lysates were prepared and analyzed for DEVDase activity using specific peptide substrate. In (F), the bars in each series from left to right are DMSO, 5, 10, and 20. (G) LNCaP and PC-3 cells were pre-treated with SKQ1 followed by DCEM1 treatment and analyzed for cell viability by MTT assay. (H) LNCaP and PC-3 cells were treated with either DCEM1 or H2O2 (200 μM) for 24 hours and total DNA were isolated and analyzed for mtDNA damage as described in materials and methods.
FIG. 7. […] (A) LNCaP and PC-3 cells were pre-treated with either rotenone or antimycin-A followed by DCEM1 treatment and mitochondrial ROS was analyzed as described in material and methods (data represented as fold change compared to control). In (A), the bars in each series from left to right are control, DCEM1, Rot+DCEM1, Anti A+DCEM1, Rot, and Anti A (B) ClpP protein was over-expressed in LNCaP and PC-3 cells followed by DCEM1 treatment and mitochondrial ROS was analyzed as described in material and methods (Data represented as fold change compared to control). […]

`CCOc1cc(CNCc2nc3ccccc3[nH]2)ccc1OCc1cccs1` [DCEM1] was tested, and the poly-Ub protein levels (LNCaP and PC-3 cells [1]) was “increased accumulation of poly-Ub proteins”, the “DCEM1-induced mitoROS production and DEVDase activity with ClpP overexpression” value (LNCaP and PC-3 cells [2]; ClpP over-expressed in LNCaP and PC-3 cells followed by DCEM1) was “inhibited” and the mitoROS levels (LNCaP and PC-3 cells [2]; LNCaP and PC-3 cells, 24 hours) was “mitoROS upregulation”. For the same molecule, the “DCEM1-induced mitoROS production with inhibition of Complex I or III” value (LNCaP and PC-3 cells [2]; pre-treated with rotenone or antimycin-A followed by DCEM1) was “not attenuated”.
